In US12649751B2 (Arcus Biosciences, Inc., priority 2022, dated 2026):
Read-outs that look alike come from different tables or passages of the source.

Experiments:
[1] = biological target: HPK1 (Homo sapiens, UniProt Q92918); assay: HPK1 Biochemical Assay (ADP-Glo luminescence; low ATP 10 μM or high ATP 200 μM)
[2] = tested on: p-SLP-76 (Ser376) in Jurkat cells; assay: pSLP76 Cellular Assay (AlphaLISA SureFire Ultra p-SLP-76 (Ser376), anti-CD3 activated Jurkat cells); format: cell-based; conditions: read-out: Cellular Potency
Summary of the method: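 Read-out is AlphaLISA p-SLP-76 (Ser376) signal at 570 nm in Jurkat lysates, with IC50 fitted by 4-parameter logistic. Cells were starved overnight, exposed 1 h at 37 °C to 22 twofold compound dilutions in HBSS, then activated 45 min with anti-CD3 (0.025 mg/ml stock added).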

[3] = HPK1 ADP-Glo assay, high ATP (200 μM ATP, 5 nM HPK1), read-out: Biochemical Potency (high ATP)
[4] = Homo sapiens, pSLP76 (Ser376) AlphaLISA, anti-CD3 activated Jurkat cells
[5] = 2 nM HPK1, 10 μM ATP, read-out: Biochemical Potency (low ATP)
[6] = Homo sapiens, Jurkat cells, anti-CD3 stimulation, pSLP76
[7] = 5 nM HPK1, 200 μM ATP, read-out: Biochemical Potency (high ATP)

Chain of HPK1 (Q92918 whole entry, species assumed): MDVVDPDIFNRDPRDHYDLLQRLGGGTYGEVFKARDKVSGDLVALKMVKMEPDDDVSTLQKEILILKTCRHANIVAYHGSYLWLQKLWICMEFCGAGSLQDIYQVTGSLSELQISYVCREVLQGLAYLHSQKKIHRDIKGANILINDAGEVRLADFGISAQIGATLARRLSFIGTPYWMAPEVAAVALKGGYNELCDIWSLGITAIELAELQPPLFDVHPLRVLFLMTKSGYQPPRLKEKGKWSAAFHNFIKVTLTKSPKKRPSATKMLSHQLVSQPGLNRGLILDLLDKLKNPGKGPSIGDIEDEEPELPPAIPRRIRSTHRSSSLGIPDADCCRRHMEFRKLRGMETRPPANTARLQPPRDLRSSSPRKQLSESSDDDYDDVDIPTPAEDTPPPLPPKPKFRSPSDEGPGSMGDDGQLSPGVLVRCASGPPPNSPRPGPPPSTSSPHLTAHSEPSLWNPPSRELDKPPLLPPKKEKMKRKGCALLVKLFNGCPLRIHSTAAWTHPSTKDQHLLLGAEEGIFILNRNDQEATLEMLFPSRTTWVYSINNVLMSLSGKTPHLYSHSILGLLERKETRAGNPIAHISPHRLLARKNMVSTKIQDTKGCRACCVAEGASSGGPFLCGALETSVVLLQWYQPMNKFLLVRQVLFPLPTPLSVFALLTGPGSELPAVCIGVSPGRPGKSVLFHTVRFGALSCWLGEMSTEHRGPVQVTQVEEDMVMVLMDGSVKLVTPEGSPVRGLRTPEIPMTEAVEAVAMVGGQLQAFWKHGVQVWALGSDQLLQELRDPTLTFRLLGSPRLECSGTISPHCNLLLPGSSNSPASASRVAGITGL

CCN1C[C@@H]2C[C@H]1CN2c1nc(C)cc(Nc2cc3nc(-c4cccc(C(=O)N5CCC(C)(C)C5)c4)sc3cn2)n1 [Example 521]
IC50 [1, 3]: < 100 nM | IC50 [2, 4]: 100 to 1000 nM

Cc1cc(Nc2cc3nc(-c4cccc(C#Cc5cnn(C)c5)c4)sc3cn2)nc(N2C[C@@H]3C[C@H]2CN3CCO)n1 [Example 362]
IC50 [1, 3]: < 100 nM | IC50 [2, 4]: 1000 to 5000 nM

Cc1cc(Nc2cc3nc(-c4cccc(C5(O)CCCC5)c4)sc3cn2)nc(N2C[C@@H]3C[C@H]2CN3C)n1 [Example 403]
IC50 [1, 3]: < 100 nM | IC50 [2, 4]: 100 to 1000 nM

CCN1C[C@@H]2C[C@H]1CN2c1nc(C)cc(Nc2cc3nc(-c4cccc(C(=O)N5CC[C@H](OC)C5)c4)sc3cn2)n1 [Example 534]
IC50 [1, 3]: < 100 nM | IC50 [2, 4]: 100 to 1000 nM

CCN1C[C@@H]2C[C@H]1CN2c1nc(C)cc(Nc2cc3nc(-c4ccc(F)c(C(=O)NC5CCCC5)c4)sc3cn2)n1 [Example 513]
IC50 [1, 3]: < 100 nM | IC50 [2, 4]: < 100 nM

CCN1C[C@@H]2C[C@H]1CN2c1nc(C)cc(Nc2cc3nc(-c4cccc(C(=O)N5CCOC[C@H]5C)c4)sc3cn2)n1 [Example 527]
IC50 [1, 3]: < 100 nM | IC50 [2, 4]: 100 to 1000 nM

Cc1cc(Nc2cc3nc(-c4cncc(N5CCOC[C@H]5C)c4)sc3cn2)nc(N2C[C@@H]3C[C@H]2CN3CCO)n1 [Example 476]
IC50 [1, 3]: < 100 nM | IC50 [2, 4]: < 100 nM

CCN1C[C@@H]2C[C@H]1CN2c1nc(C)cc(Nc2cc3nc(-c4cnn(CC5CC5)c4)sc3cn2)n1 [Example 383]
IC50 [1, 3]: < 100 nM | IC50 [2, 4]: < 100 nM

Cc1cccnc1-c1nc2cc(Nc3cc(-c4cnccc4C#N)cc(N4C[C@@H]5C[C@H]4CN5C)n3)ncc2s1 [Example 434]
IC50 [1, 3]: < 100 nM | IC50 [2, 4]: 100 to 1000 nM

Cc1cc(Nc2cc3nc(-c4cccc(C5(C(=O)N(C)C)CC5)c4)sc3cn2)nc(N2C[C@@H]3C[C@H]2CN3C)n1 [Example 393]
IC50 [1, 3]: < 100 nM | IC50 [2, 4]: 100 to 1000 nM

CC(C)(O)c1cc(-c2nc3cc(Nc4ccnc(N5C[C@@H]6C[C@H]5CN6)n4)ncc3s2)ccn1 [Example 120, 2-{4-[6-({2-[(1S,4S)-2,5-Diazabicyclo[2.2.1]heptan-2-yl]pyrimidin-4-yl}amino)-[1,3]thiazolo[5,4-c]pyridin-2-yl]pyridin-2-yl}propan-2-ol]
IC50 [1, 5]: < 100 nM | IC50 [2, 6]: 100 to 1000 nM

CN1C[C@@H]2C[C@H]1CN2c1nccc(Nc2cc3nc(-c4cccc(N5CC[C@H](O)C5)c4)sc3cn2)n1 [Example 123, (3S)-1-{3-[6-({2-[(1S,4S)-5-Methyl-2,5-diazabicyclo[2.2.1]heptan-2-yl]pyrimidin-4-yl}amino)-[1,3]thiazolo[5,4-c]pyridin-2-yl]phenyl}pyrrolidin-3-ol]
IC50 [1, 5]: < 100 nM | IC50 [1, 7]: < 100 nM | IC50 [2, 6]: 1000 to 5000 nM

CC(C)n1cc(-c2nc3cc(Nc4ccc(N5CCOCC5)c(CN5CCCC5)n4)ncc3s2)cn1 [Example 23, 5-(Morpholin-4-yl)-N-{2-[1-(propan-2-yl)-1H-pyrazol-4-yl]-[1,3]thiazolo[5,4-c]pyridin-6-yl}-6-[(pyrrolidin-1-yl)methyl]pyridin-2-amine]
IC50 [1, 5]: < 100 nM | IC50 [2, 6]: > 5000 nM

Cc1cc(Nc2cc3nc(-c4ccnc(N5CCOCC5)c4)sc3cn2)nc(N2C[C@@H]3C[C@H]2CN3CCO)n1 [Example 458]
IC50 [1, 3]: < 100 nM | IC50 [2, 4]: 100 to 1000 nM

Cc1cc(Nc2cc3nc(-c4ncccc4C)sc3cn2)nc(O[C@H]2CCNC2)c1 [Example 164, 4-Methyl-N-[2-(3-methylpyridin-2-yl)-[1,3]thiazolo[5,4-c]pyridin-6-yl]-6-[(3S)-pyrrolidin-3-yloxy]pyridin-2-amine]
IC50 [1, 5]: < 100 nM | IC50 [2, 6]: 100 to 1000 nM

Cc1cc(Nc2cc3nc(-c4ncccc4C)sc3cn2)nc(N2C[C@@H]3C[C@H]2CN3C)n1 [Example 160, 6-Methyl-2-[(1S,4S)-5-methyl-2,5-diazabicyclo[2.2.1]heptan-2-yl]-N-[2-(3-methylpyridin-2-yl)-[1,3]thiazolo[5,4-c]pyridin-6-yl]pyrimidin-4-amine]
IC50 [1, 5]: < 100 nM | IC50 [2, 6]: < 100 nM

Cc1cccnc1-c1nc2cc(Nc3cc(C4CCOCC4)nc(N4C[C@@H]5C[C@H]4CN5C)n3)ncc2s1 [Example 249, 2-[(1S,4S)-5-Methyl-2,5-diazabicyclo[2.2.1]heptan-2-yl]-N-[2-(3-methylpyridin-2-yl)-[1,3]thiazolo[5,4-c]pyridin-6-yl]-6-(oxan-4-yl)pyrimidin-4-amine]
IC50 [1, 5]: < 100 nM | IC50 [1, 7]: < 100 nM | IC50 [2, 6]: 100 to 1000 nM

Cc1cccnc1-c1nc2cc(Nc3ccc(Cl)c(N4C[C@@H]5C[C@H]4CN5C)n3)ncc2s1 [Example 110, 5-Chloro-6-[(1S,4S)-5-methyl-2,5-diazabicyclo[2.2.1]heptan-2-yl]-N-[2-(3-methylpyridin-2-yl)-[1,3]thiazolo[5,4-c]pyridin-6-yl]pyridin-2-amine]
IC50 [1, 5]: < 100 nM | IC50 [2, 6]: 100 to 1000 nM

CN1C[C@@H]2C[C@H]1CN2c1cncc(Nc2cc3nc(-c4cccc(NS(C)(=O)=O)c4)sc3cn2)n1 [Example 285, N-{3-[6-({6-[(1S,4S)-5-methyl-2,5-diazabicyclo[2.2.1]heptan-2-yl]pyrazin-2-yl}amino)-[1,3]thiazolo[5,4-c]pyridin-2-yl]phenyl}methanesulfonamide]
IC50 [1, 5]: < 100 nM | IC50 [1, 7]: < 100 nM | IC50 [2, 6]: 100 to 1000 nM

Cc1cc(Nc2cc3nc(-c4cccc(N5CC(F)C5)c4)sc3cn2)nc(N2C[C@@H]3C[C@H]2CN3C)n1 [Example 479]
IC50 [1, 3]: < 100 nM | IC50 [2, 4]: 100 to 1000 nM

Cc1cc(Nc2cc3nc(-c4cncc(C5CC5)c4)sc3cn2)nc(N2C[C@@H]3C[C@H]2CN3CCO)n1 [Example 361]
IC50 [1, 3]: < 100 nM | IC50 [2, 4]: 100 to 1000 nM

Cc1ccnn1-c1nc2cc(Nc3ccc(C4CCOCC4)c(CN[C@H]4CCOC4)n3)ncc2s1 [Example 209, N-[2-(5-Methyl-1H-pyrazol-1-yl)-[1,3]thiazolo[5,4-c]pyridin-6-yl]-5-(oxan-4-yl)-6-({[(3S)-oxolan-3-yl]amino}methyl)pyridin-2-amine]
IC50 [1, 5]: < 100 nM | IC50 [2, 6]: 1000 to 5000 nM

Cc1cccnc1-c1nc2cc(Nc3ccc(N4CCC(F)(F)C4)c(CN4CCCC4)n3)ncc2s1 [Example 9, 5-(3,3-Difluoropyrrolidin-1-yl)-N-[2-(3-methylpyridin-2-yl)-[1,3]thiazolo[5,4-c]pyridin-6-yl]-6-[(pyrrolidin-1-yl)methyl]pyridin-2-amine]
IC50 [1, 5]: < 100 nM | IC50 [2, 6]: 100 to 1000 nM

CCN1C[C@@H]2C[C@H]1CN2c1nc(C)cc(Nc2cc3nc(-c4cccc(C(=O)N(C)C5CCOCC5)c4)sc3cn2)n1 [Example 528]
IC50 [1, 3]: < 100 nM | IC50 [2, 4]: 100 to 1000 nM

CCN1C[C@@H]2C[C@H]1CN2c1nc(C)cc(Nc2cc3nc(-c4cccc(C(=O)N5CCC[C@@H](C)C5)c4)sc3cn2)n1 [Example 511]
IC50 [1, 3]: < 100 nM | IC50 [2, 4]: 100 to 1000 nM

CN(C)Cc1nc(Nc2cc3nc(-c4c(F)cccc4F)sc3cn2)ccc1C1CCOC1 (stereo not drawn) [Example 257, N-[2-(2,6-Difluorophenyl)-[1,3]thiazolo[5,4-c]pyridin-6-yl]-6-[(dimethylamino)methyl]-5-(oxolan-3-yl)pyridin-2-amine]
IC50 [1, 5]: < 100 nM | IC50 [2, 6]: 1000 to 5000 nM

CCN1C[C@@H]2C[C@H]1CN2c1nc(C)cc(Nc2cc3nc(O[C@H](C)c4ccccc4)sc3cn2)n1 [Example 298, 2-[(1S,4S)-5-ethyl-2,5-diazabicyclo[2.2.1]heptan-2-yl]-6-methyl-N-{2-[(1R)-1-phenylethoxy]-[1,3]thiazolo[5,4-c]pyridin-6-yl}pyrimidin-4-amine]
IC50 [1, 3]: < 100 nM | IC50 [2, 4]: < 100 nM

CC(C)(O)c1cccc(-c2nc3cc(Nc4cnc(C5CCOCC5)c(N5C[C@@H]6C[C@H]5CN6)n4)ncc3s2)c1 [Example 509]
IC50 [1, 3]: < 100 nM | IC50 ([1]; HPK1 ADP-Glo assay, low ATP (10 μM ATP, 2 nM HPK1), read-out: Biochemical Potency (low ATP)): < 100 nM | IC50 [2, 4]: < 100 nM

Cc1cc(Nc2cc3nc(-c4cccc(C(=O)N(C)[C@H]5CCCOC5)c4)sc3cn2)nc(N2C[C@@H]3C[C@H]2CN3CCO)n1 [Example 543]
IC50 [1, 3]: < 100 nM | IC50 ([2]; pSLP76 (Ser376) AlphaLISA, anti-CD3 activated Jurkat cells): < 100 nM

CC(c1nc(Nc2cc3nc(-c4c(F)cccc4F)sc3cn2)ccc1N1CCOCC1)N(C)C (stereo not drawn) [Example 277, N-[2-(2,6-Difluorophenyl)-[1,3]thiazolo[5,4-c]pyridin-6-yl]-6-[1-(dimethylamino)ethyl]-5-(morpholin-4-yl)pyridin-2-amine]
IC50 [1, 5]: < 100 nM | IC50 [2, 6]: 1000 to 5000 nM

CN(C)Cc1nc(Nc2cc3nc(-c4c(F)cccc4C(F)(F)F)sc3cn2)ccc1N1CCOCC1 [Example 15, 6-[(Dimethylamino)methyl]-N-{2-[2-fluoro-6-(trifluoromethyl)phenyl]-[1,3]thiazolo[5,4-c]pyridin-6-yl}-5-(morpholin-4-yl)pyridin-2-amine]
IC50 [1, 5]: < 100 nM | IC50 [2, 6]: 100 to 1000 nM

CNC(=O)c1cccc(-c2nc3cc(Nc4cc(C)nc(N5C[C@@H]6C[C@H]5CN6CCO)n4)ncc3s2)c1 [Example 549]
IC50 [1, 3]: < 100 nM | IC50 [2, 4]: 100 to 1000 nM

Cc1cc(Nc2cc3nc(-c4cnn(C)c4C(=O)N(C)C)sc3cn2)nc(N2C[C@@H]3C[C@H]2CN3C)n1 [Example 372]
IC50 [1, 3]: < 100 nM | IC50 [2, 4]: 100 to 1000 nM

CC(=O)N1CCc2c(cccc2-c2nc3cc(Nc4cc(C)nc(N5C[C@@H]6C[C@H]5CN6C)n4)ncc3s2)C1 [Example 389]
IC50 [1, 3]: 100 to 1000 nM | IC50 [2, 4]: 1000 to 5000 nM
